Reference: patent publication US11066414B2, “Cot modulators and methods of use thereof” (Gilead Sciences, Inc., priority 2015, dated 2021)
pEC50, pIC50: −log10 of the molar value. Read-outs that look alike come from different tables or passages of the source.

How the values were obtained:
[1] = tested on: TNFα; assay: Cot Monocyte TNFα Cell Based Assay
[2] = biological target: Human Cot (Homo sapiens (Human), UniProt P41279); assay: High Throughput Cot Biochemical Assay; settings: Cot HTRF (TR-FRET) biochemical assay
Sequence of Human Cot (P41279 30-397): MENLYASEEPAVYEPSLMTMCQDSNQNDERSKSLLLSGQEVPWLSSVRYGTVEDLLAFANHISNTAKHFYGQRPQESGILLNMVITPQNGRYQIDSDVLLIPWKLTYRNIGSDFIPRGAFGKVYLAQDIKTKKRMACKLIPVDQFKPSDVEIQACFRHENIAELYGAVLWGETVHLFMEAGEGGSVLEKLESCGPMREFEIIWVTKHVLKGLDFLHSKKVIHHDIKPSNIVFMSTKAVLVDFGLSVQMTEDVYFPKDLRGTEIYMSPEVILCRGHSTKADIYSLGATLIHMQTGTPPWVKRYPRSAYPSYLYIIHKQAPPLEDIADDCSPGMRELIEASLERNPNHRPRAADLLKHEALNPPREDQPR

[3] = Homo sapiens, Monocyte, read-out: EC50 TNF, LPS-stimulated human monocytes, TNFα
[4] = read-out: EC50 TNF, LPS-stimulated human monocytes, TNFα

Compound | pEC50 [1, 3] | pIC50 ([2]; IC50 HTRF) | pEC50 [1, 4] | pIC50 ([2]; read-out: IC50 HTRF)
CC(C)(C)CNc1c(C#N)cnc2c(Cl)cc(N[C@H](c3cn(C4(C#N)CC4)nn3)c3cccc4cnccc34)cc12 [Example 563, (S)-8-chloro-6-(((1-(1-cyanocyclopropyl)-1H-1,2,3-triazol-4-yl)(isoquinolin-5-yl)methyl)amino)-4-(neopentylamino)-quinoline-3-carbonitrile] | 7.20 | 8.70 | – | –
CC(C)(C)CNc1c(C#N)cnc2c(Cl)cc(N[C@H](c3cn(C4(C)CC4)nn3)c3cccc4cnccc34)cc12 [Example 564, (S)-8-chloro-6-((isoquinolin-5-yl(1-(1-methylcyclopropyl)-1H-1,2,3-triazol-4-yl)methyl)amino)-4-(neopentylamino)-quinoline-3-carbonitrile] | 7.16 | 8.52 | – | –
CC(C)(C)CNc1c(C#N)cnc2c(C#N)cc(N[C@H](c3cn(C4(CF)CC4)nn3)c3cccc4cnccc34)cc12 [Example 569] | – | – | 6.77 | 8.15
Cn1cc2cccc([C@H](Nc3cc(Cl)c4ncc(C#N)c(NCC(C)(C)C)c4c3)c3cn(C4(C(F)(F)F)CC4)nn3)c2n1 [Example 570, (S)-8-chloro-6-(((2-methyl-2H-indazol-7-yl)(1-(1-(trifluoromethyl)cyclopropyl)-1H-1,2,3-triazol-4-yl)methyl)amino)-4-(neopentylamino)quinoline-3-carbonitrile] | 6.00 | 6.74 | – | –
CC(C)(C)CNc1c(C#N)cnc2c(C#N)cc(N[C@H](c3cn(C4(C(F)(F)F)CC4)nn3)c3cccn4nccc34)cc12 [Example 572, (S)-4-(neopentylamino)-6-((pyrazolo[1,5-a]pyridin-4-yl(1-(1-(trifluoromethyl)cyclo-propyl)-1H-1,2,3-triazol-4-yl)methyl)amino)quinoline-3,8-dicarbonitrile] | 7.10 | 8.40 | – | –
Cn1cc2cccc([C@H](Nc3cc(C#N)c4ncc(C#N)c(NCC(C)(C)C)c4c3)c3cn(C4(C(F)(F)F)CC4)nn3)c2n1 [Example 573, (S)-6-(((2-methyl-2H-indazol-7-yl)(1-(1-(trifluoromethyl)cyclopropyl)-1H-1,2,3-triazol-4-yl)methyl)amino)-4-(neopentylamino)quinoline-3,8-dicarbonitrile] | 6.12 | 7.18 | – | –
[2H]c1c([C@@H](Nc2cc(C#N)c3ncc(C#N)c(NCC(C)(C)C)c3c2)c2ccc(F)nc2C)nnn1C1(C(F)(F)F)CC1 [Example 574, (S)-6-(((6-fluoro-2-methylpyridin-3-yl)(1-(1-(trifluoromethyl)cyclopropyl)-1H-1,2,3-triazol-4-yl-5-d)methyl)amino)-4-(neopentylamino)quinoline-3,8-dicarbonitrile] | 7.07 | 8.40 | – | –
Cc1nc(F)ccc1[C@H](Nc1cc(Cl)c2ncc(C#N)c(NCC(C)(C)C)c2c1)c1cn([C@@H]2C[C@@H]2F)nn1 [Example 579, 8-chloro-6-(((S)-(6-fluoro-2-methylpyridin-3-yl)(1-((lR,2S)-2-fluorocyclopropyl)-1H-1,2,3-triazol-4-yl)methyl)amino)-4-(neopentylamino)quinoline-3-carbonitrile] | – | – | 7.62 | 8.70
Cc1nc(F)ccc1[C@H](Nc1cc(C#N)c2ncc(C#N)c(N[C@H](C)C(C)(C)C)c2c1)c1cn(C2(C(F)(F)F)CC2)nn1 [Example 583, 4-(((R)-3,3-dimethylbutan-2-yl)amino)-6-(((S)-(6-fluoro-2-methylpyridin-3-yl)(1-(1-(trifluoromethyl)cyclopropyl)-1H-1,2,3-triazol-4-yl)methyl)amino)quinoline-3,8-dicarbonitrile] | 6.92 | 8.40 | – | –
CC(C)(C)CNc1c(C#N)cnc2c(C#N)cc(N[C@H](c3cn(C4(C(N)=O)CC4)nn3)c3cccc4cnccc34)cc12 [Example 586, (S)-1-(4-(((3,8-dicyano-4-(neopentylamino)-quinolin-6-yl)atnino)(isoquinolin-5-yl)methyl)-1H-1,2,3-triazol-yl)cyclopropane-1-carboxamide] | – | – | 6.00 | 8.70
Cc1nc(F)ccc1[C@H](Nc1cc(Cl)c2ncc(C#N)c(NC3CCCCC3)c2c1)c1cn(C2(C(F)(F)F)CC2)nn1 [Example 588, (S)-8-chloro-4-(cyclohexylamino)-6-(((6-fluoro-2-methylpyridin-3-yl)(1-(1-(trifluoromethyl)cyclopropyl)-1H-1,2,3-triazol-4-yl)methyl)amino)quinoline-3-carbonitrile] | 6.20 | 7.26 | – | –
Cc1nc(F)ccc1[C@H](Nc1cc(C#N)c2ncc(C#N)c(NCC(C)(C)C)c2c1)c1cn(C(C)(C)C(F)F)nn1 [Example 590, (S)-6-(((1-(1,1-difluoro-2-methylpropan-2-yl)-1H-1,2,3-triazol-4-yl)(6-fluoro-2-methylpyridin-3-yl)methyl)amino)-4-(neopentylamino)-quinoline-3,8-dicarbonitrile] | 7.24 | 8.52 | – | –
Cc1nc(F)ccc1[C@H](Nc1cc(C#N)c2ncc(C#N)c(NCC(C)(C)C)c2c1)c1cn(C(C)(C)C(F)(F)F)nn1 [Example 591, (S)-6-(((6-fluoro-2-methylpyridin-3-yl)(1-(1,1,1-trifluoro-2-methylpropan-2-yl)-1H-1,2,3-triazol-4-yl)methyl)amino)-4-(neopentylamino)quinoline-3,8-dicarbonitrile] | 6.97 | 8.30 | – | –

Second part, the compound after the results:

pEC50 [1, 3] | pIC50 ([2]; IC50 HTRF) | pEC50 [1, 4] | pIC50 ([2]; read-out: IC50 HTRF) | Compound
6.51 | 8.70 | – | – | CC(C)(C)CNc1c(C#N)cnc2c(Cl)cc(N[C@H](c3cn(C4(C(N)=O)CC4)nn3)c3cccc4ncccc34)cc12 [Example 565, (S)-1-(4-(((8-chloro-3-cyano-4-(neopentyl-amino)quinolin-6-yl)amino)(quinolin-5-yl)methyl)-1H-1,2,3-triazol-1-yl)cyclo-propane-1-carboxamide]
6.72 | 8.70 | – | – | CC(C)(C)CNc1c(C#N)cnc2c(Cl)cc(N[C@H](c3cn(C4(C(N)=O)CCC4)nn3)c3cccc4ncccc34)cc12 [Example 566, (S)-1-(4-(((8-chloro-3-cyano-4-(neopentyl-amino)quinolin-6-yl)amino)(quinolin-5-yl)methyl)-1H-1,2,3-triazol-1-yl)cyclobutane-1-carboxamide]
7.18 | 8.70 | – | – | CC(C)(C)CNc1c(C#N)cnc2c(Cl)cc(N[C@H](c3cn(C4(C#N)CC4)nn3)c3cccc4ncccc34)cc12 [Example 567, (S)-8-chloro-6-(((1-(1-cyanocyclopropyl)-1H-1,2,3-triazol-4-yl)(quinolin-5-yl)methyl)amino)-4-(neopentylamino)-quinoline-3-carbonitrile]
6.77 | 8.30 | – | – | CC(C)(C)CNc1c(C#N)cnc2c(Cl)cc(N[C@H](c3cn(C4(C)CC4)nn3)c3cccc4ncccc34)cc12 [Example 568, (S)-8-chloro-6-(((1-(1-methylcyclopropyl)-1H-1,2,3-triazol-4-yl)(quinolin-5-yl)methyl)amino)-4-(neopentylamino)-quinoline-3-carbonitrile]
6.01 | 9.00 | – | – | CC(C)(C)CNc1c(C#N)cnc2c(C#N)cc(N[C@H](c3cn(C4(C(N)=O)CC4)nn3)c3cccc4ncccc34)cc12 [Example 575, (S)-1-(4-(((3,8-dicyano-4-(neopentylamino)-quinolin-6-yl)amino)(quinolin-5-yl)methyl)-1H-1,2,3-triazol-1-yl)cyclopropane-1-carboxamide]
6.36 | 9.00 | – | – | CC(C)(C)CNc1c(C#N)cnc2c(C#N)cc(N[C@H](c3cn(C4(C(N)=O)CCC4)nn3)c3cccc4ncccc34)cc12 [Example 576, (S)-1-(4-(((3,8-dicyano-4-(neopentyl-amino)quinolin-6-yl)amino)(quinolin-5-yl)methyl)-1H-1,2,3-triazol-1-yl)cyclobutane-1-carboxamide]
7.31 | 9.00 | – | – | CC(C)(C)CNc1c(C#N)cnc2c(C#N)cc(N[C@H](c3cn(C4(C#N)CC4)nn3)c3cccc4ncccc34)cc12 [Example 577, (S)-6-(((1-(1-cyanocyclopropyl)-1H-1,2,3-triazol-4-yl)(quinolin-5-yl)methyl)amino)-4-(neopentylamino)-quinoline-3,8-dicarbonitrile]
7.49 | 8.70 | – | – | CC(C)(C)CNc1c(C#N)cnc2c(C#N)cc(N[C@H](c3cn(C4(C)CC4)nn3)c3cccc4ncccc34)cc12 [Example 578, (S)-6-(((1-(1-methylcyclopropyl)-1H-1,2,3-triazol-4-yl)(quinolin-5-yl)methyl)amino)-4-(neopentylamino)quinoline-3,8-dicarbonitrile]
7.08 | 8.70 | – | – | CC(C)(C)CNc1c(C#N)cnc2c(C#N)cc(N[C@H](c3cn(C4(C#N)CC4)nn3)c3cccc4cnccc34)cc12 [Example 580, (S)-6-(((1-(1-cyanocyclopropyl)-1H-1,2,3-triazol-4-yl)(isoquinolin-5-yl)methyl)amino)-4-(neopentylamino)-quinoline-3,8-dicarbonitrile]
7.49 | 8.70 | – | – | CC(C)(C)CNc1c(C#N)cnc2c(C#N)cc(N[C@H](c3cn(C4(C)CC4)nn3)c3cccc4cnccc34)cc12 [Example 581, (S)-6-((isoquinolin-5-yl(1-(1-methylcyclo-propyl)-1H-1,2,3-triazol-4-yl)methyl)amino)-4-(neopentylamino)quinoline-3,8-dicarbonitrile]
6.31 | 9.00 | – | – | CC(C)(C)CNc1c(C#N)cnc2c(C#N)cc(N[C@H](c3cn(C4(C(N)=O)CCC4)nn3)c3cccc4cnccc34)cc12 [Example 587, (S)-1-(4-(((3,8-dicyano-4-(neopentylamino)-quinolin-6-yl)amino)(isoquinolin-5-yl)methyl)-1H-1,2,3-triazol-1-yl)cyclobutane-1-carboxamide]
